Consider 11 molecules from patent US8853424B2 (Japan Science and Technology Agency, priority 2008, dated 2014).

For one experiment, the system named is transglutaminase (TGase). Nature of the experiment: Measurement of TG (TGase inhibitory activity, monodansyl cadaverine / N,N-dimethylcasein fluorescence, FDSS 3000). Type of experiment: biochemical. The procedure: For example, the method described in the Example can be performed.
The compound of the present invention (10 mM, 1 μL) was taken in a 96-well plate (Nunc, 96 Well Black Plate with Clear Bottom), an enzyme reaction solution (100 mM HEPES-NaOH, pH 7.5, 1 mM CaCl2, 20 μM monodansyl cadaverine, 0.05 mg/mL N,N-dimethylcasein, 5 μg/mL TGase) (0.1 ml) was added and the mixture was sufficiently mixed without making foams. The mixture was set on a fluorescence drug screening system FDSS 3000 (Hamamatsu Photonics K.K.), and changes in the fluorescence wavelength per unit time at 340 nm were measured, based on which the TGase inhibitory activity of the compound of the present invention was calculated. As a control, change in the fluorescence when 1 μL of DMSO (dimethyl sulfoxide) was added instead of the compound of the present invention was taken as 100, and TG50 was when the activity decreased to half due to the compound of the present invention.

Experiment [1] relates to Truncated N-terminal huntington 150 Q-EGFP-Neuron 2a cells. Kind of experiment: Measurement of x-Fold (polyglutamine aggregation inhibitory activity). Type of experiment: cell-based. On the procedure:
In the present invention, the polyglutamine aggregation inhibitory activity (x-Fold) can be measured, for example, by the method described in the Example.
The number of the aggregated cells, and the total number of cells were counted by Array Scan V T1 (manufactured by Cellomics, Pittuburg, USA), and the ratio of the aggregated cells to the total number of cells was determined (x-Fold). […]

Where [2] appears, read: TGase activity with compound (10 mM, 1 μL in 0.1 ml enzyme reaction solution), DMSO control taken as 100.
Where [3] appears, read: TGase inhibitory activity value, Table 1.
The mark [4] stands for this setting: polyglutamine aggregation inhibitory activity, Table 1.
[5] abbreviates: ratio of aggregated cells to total number of cells, compound 20 μM, 20 hr, almost 1 without compound, smaller = stronger inhibition.

For `NCCOB(c1ccccc1)c1cccc(B(OCCN)c2ccccc2)c1` [Example 120, 1,3-bis(phenyl-2-aminoethoxyboryl)benzene], the “TGase activity remaining (% of DMSO control = 100)” value with transglutaminase (TGase) (setting [2]) and in the experiment with transglutaminase (TGase) (setting [3]) was 88 each time. For the same molecule, the x-Fold in experiment [1] (setting [4]) and in experiment [1] (setting [5]) was 1.08 throughout.

`OB(c1ccccc1)c1ccccc1B(O)c1ccccc1` [Example 121, 1,2-bis(phenylhydroxyboryl)benzene]: the “TGase activity remaining (% of DMSO control = 100)” value in the experiment on transglutaminase (TGase) (setting [2]) is 121; in the experiment on transglutaminase (TGase) (TGase inhibitory activity value, Table 1, listed as 583), 121. In addition, the x-Fold in experiment [1] (polyglutamine aggregation inhibitory activity, Table 1, listed as 583) was 0.94; in experiment [1] (setting [5]) it was 0.94.

As to `COc1ccc(C(OB(c2ccccc2)c2ccc(COCc3ccc(B(OC(c4ccc(OC)cc4)c4ccccn4)c4ccccc4)cc3)cc2)c2ccccn2)cc1` (stereo not shown) [Example 126, bis(phenyl 2-pyridyl-4-methoxyphenylmethoxyborylbenzyl)ether], the “TGase activity remaining (% of DMSO control = 100)” value in the experiment on transglutaminase (TGase) (setting [2]) is 81. Moreover, the x-Fold in experiment [1] (setting [5]) turned out to be 1.04.

Turning to `COc1ccc(C(OB(c2ccc(C)c(Cl)c2)c2ccc(C)c(Cl)c2)c2ccccn2)cc1` (stereo not shown) [Example 127, bis(3-chloro-4-methylphenyl) 2-pyridyl-4-methoxyphenylmethoxyborane], the “TGase activity remaining (% of DMSO control = 100)” value in the experiment with transglutaminase (TGase) (setting [2]) and in the experiment with transglutaminase (TGase) (setting [3]) was 109 in each case. Further, the x-Fold in experiment [1] (setting [4]) and in experiment [1] (setting [5]) was 0.70 throughout.

For `Cc1ccc(B(OCCN)c2ccc(B(OCCN)c3ccc(C)c(Cl)c3)cc2)cc1Cl` [Example 128, 1,4-bis(3-chloro-4-methylphenyl-2-aminoethoxyboryl)benzene], the “TGase activity remaining (% of DMSO control = 100)” value with transglutaminase (TGase) (setting [2]) and in the experiment on transglutaminase (TGase) (setting [3]) was 143 each time. The x-Fold in experiment [1] (setting [4]) and in experiment [1] (setting [5]) was 0.93 in each case.

Regarding `NCC(=O)OB(c1ccccc1)c1ccc(Oc2ccc(B(OC(=O)CN)c3ccccc3)cc2)cc1` [Example 129, di((phenylglycine-O,N boryl)phenyl)ether], the “TGase activity remaining (% of DMSO control = 100)” value in the experiment with transglutaminase (TGase) (setting [2]) is listed as 101. For the same molecule, the x-Fold in experiment [1] (setting [5]) came out at 0.78.

As to `OB(c1ccccc1)c1cc(B(O)c2ccccc2)cc(B(O)c2ccccc2)c1` [Example 130, 1,3,5-tri(phenylhydroxyboryl)benzene], the “TGase activity remaining (% of DMSO control = 100)” value in the experiment with transglutaminase (TGase) (setting [2]) and in the experiment with transglutaminase (TGase) (setting [3]) was 116 in each case. Besides, the x-Fold in experiment [1] (setting [4]) and in experiment [1] (setting [5]) was 0.85 throughout.

On to `c1ccc(B(OC(c2ccccc2)c2ccccn2)c2ccccc2COCc2ccccc2B(OC(c2ccccc2)c2ccccn2)c2ccccc2)cc1` (stereo not shown) [Example 133, (2-pyridyl-phenylmethoxyphenylboryl 2-benzyl)ether], for which the “TGase activity remaining (% of DMSO control = 100)” value in the experiment with transglutaminase (TGase) (setting [2]) and with transglutaminase (TGase) (setting [3]) was 106 in each case. Further, the x-Fold in experiment [1] (setting [4]) and in experiment [1] (setting [5]) was 1.00 in each case.

Turning to `FC(F)(F)c1ccc(C(OB(c2ccccc2)c2ccccc2COCc2ccccc2B(OC(c2ccc(C(F)(F)F)cc2)c2ccccn2)c2ccccc2)c2ccccn2)cc1` (stereo not shown) [Example 134, (2-pyridyl-4-trifluoromethylphenylmethoxyphenylboryl 2-benzyl)ether], the “TGase activity remaining (% of DMSO control = 100)” value in the experiment on transglutaminase (TGase) (setting [2]) and in the experiment on transglutaminase (TGase) (setting [3]) was 94 in each case. For the same molecule, the x-Fold in experiment [1] (setting [4]) and in experiment [1] (setting [5]) was 0.92 throughout.

Consider `OB(c1ccccc1)c1ccc(B(O)c2ccccc2)c2ccccc12` [Example 135, 1,4-bis(phenylhydroxyboryl)naphthalene], for which the “TGase activity remaining (% of DMSO control = 100)” value with transglutaminase (TGase) (setting [2]) and in the experiment with transglutaminase (TGase) (setting [3]) was 99 each time. The x-Fold in experiment [1] (setting [4]) and in experiment [1] (setting [5]) was 1.03 throughout.

Consider `NC(=O)CC(N)C(=O)OB(c1ccccc1)c1ccccc1` (stereo not shown) [Example 136, diphenyl(asparaginate-O,N)borane], for which the “TGase activity remaining (% of DMSO control = 100)” value is on record as 96 in the experiment with transglutaminase (TGase) (setting [2]) and 96 in the experiment on transglutaminase (TGase) (TGase inhibitory activity value, Table 1, listed as 871). Besides, the x-Fold came out at 0.98 in experiment [1] (polyglutamine aggregation inhibitory activity, Table 1, listed as 871) and 0.98 in experiment [1] (setting [5]).
